# Experimental data from patent publication US9090658B2, “Base-substituted benzylamine analogs for use as coagulation factor Xa inhibitors, the production and use thereof” (The Medicines Company (Leipzig) GmbH, priority 2003, dated 2015).
# Where a name gives a salt, the structure may show the parent alone.
# Legend:
# Thrombin = Thrombin (UniProt P00735); test: Determination of the inhibitory constants for thrombin (method of Stürzebecher et al. 1997); type: biochemical
# Source text: The Ki values are the average of at least three determinations.
# factor Xa = molecular target: T1, factor Xa (Bos taurus, UniProt P00743); test: Determination of the inhibitory constants for factor Xa (chromogenic substrate Moc-D-Nle-Gly-Arg-pNA, Dixon method); type: biochemical, bovine; settings: for Ki: bovine factor Xa, 25° C., pH 8.0, average of at least three determinations
# T1 construct: purchased Diagnostic Reagents Ltd, Thame, GB
# Procedure: Determination of the inhibitory Effect
# To determine the inhibitory effect, 200 μl of this buffer (0.05 M 0.154 M NaCl, 5% Ethanol, pH 8.0; contains the inhibitor), 25 μl of substrate (Moc-D-Nle-Gly-Arg-pNA in H2O; Pentapharm Ltd., Basle, Switzerland) and 50 μl of factor Xa (bovine, Diagnostic Reagents Ltd, thame, GB) were incubated at 25° C. After 3 min, the reaction was stopped By adding 25 μl of acetic acid (50%), and the absorption at 405 nm was determined using a Microplate Reader (MR 5000, Dynatech, Denkendorf, Germany). The Ki values were Founder by the Dixon method (boichem. J. 55, 170-171, 1953) by linear regression using a Computer program. The Ki values are the average of at least three determinations. The Thrombin inhibitions was determined in analogy to a method described earlier (Stürzebecher et al., J. Med. Chem. 40, 3091-3099, 1997).
# T1 sequence (P00743 234-492 limits assumed): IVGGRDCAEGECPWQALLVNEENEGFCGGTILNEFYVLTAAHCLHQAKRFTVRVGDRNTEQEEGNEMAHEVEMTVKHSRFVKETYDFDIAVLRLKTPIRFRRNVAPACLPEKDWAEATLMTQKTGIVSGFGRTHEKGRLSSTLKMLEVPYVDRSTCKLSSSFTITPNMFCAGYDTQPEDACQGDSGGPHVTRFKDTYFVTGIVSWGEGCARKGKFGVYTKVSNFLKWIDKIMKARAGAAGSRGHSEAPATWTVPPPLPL
# T1 sequence (P00743 41-180 partner limits assumed): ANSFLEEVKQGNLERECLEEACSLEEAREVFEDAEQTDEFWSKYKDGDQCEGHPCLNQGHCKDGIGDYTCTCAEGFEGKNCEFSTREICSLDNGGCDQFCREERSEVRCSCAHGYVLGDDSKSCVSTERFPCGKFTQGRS
SMILES,Ki (Thrombin),selectivity ratio SR (SR = Ki thrombin/Ki factor Xa) (factor Xa),Ki (factor Xa)
N=C(N)c1ccc(CNC(=O)CNC(=O)C(CCc2ccncc2)NS(=O)(=O)Cc2ccc(CC(=O)O)cc2)cc1 (stereo not shown) [Compound 49],38000 nM,2923,13 nM
N=C(N)c1ccc(CNC(=O)CNC(=O)[C@@H](CNc2ccncc2)NS(=O)(=O)Cc2ccccc2)cc1 [Compound 23],2800 nM,127,22 nM
N=C(N)c1ccc(CNC(=O)CNC(=O)[C@@H](CCc2ccccc2)NS(=O)(=O)Cc2cc[n+]([O-])cc2)cc1 [Compound 59],16000 nM,16,970 nM
Nc1ccc(CNC(=O)CNC(=O)C(CCc2ccncc2)NS(=O)(=O)Cc2ccccc2)cn1 (stereo not shown) [Compound 65],100000 nM,833,120 nM
N=C(N)c1ccc(CNC(=O)CNC(=O)C(CCc2ccncc2)NS(=O)(=O)Cc2ccc([N+](=O)[O-])cc2)cc1 (stereo not shown) [Compound 31],1900 nM,543,3.5 nM
N=C(N)c1ccc(CNC(=O)[C@H](CCCc2ccccc2)NC(=O)C(CCc2ccncc2)NS(=O)(=O)Cc2ccccc2)cc1 (stereo partly shown) [Compound 38],180 nM,30,6 nM
N=C(N)c1ccc(CNC(=O)CNC(=O)[C@@H](CCc2ccccc2)NS(=O)(=O)NC2CCCCC2)cc1.O=C(O)C(F)(F)F [Compound 18],5400 nM,49,110 nM
"N=C(N)c1ccc(CNC(=O)[C@H](CO)NC(=O)[C@@H](CCc2ccccc2)NS(=O)(=O)Cc2ccncc2)cc1 [Compound 7, 4-PMs-dhomoPhe-Gly-4Amba×2 TFA]",3300 nM,7.2,460 nM
CS(=O)(=O)N[C@H](CCc1ccccc1)C(=O)NCC(=O)NCc1ccc(C(=N)N)cc1 [Compound 62],1300 nM,1.2,1060 nM
N=C(N)c1ccc(CNC(=O)CNC(=O)[C@@H](CCc2ccccc2)NS(=O)(=O)Cc2cccc(N)c2)cc1 [Compound 45],1400 nM,150,9.3 nM
N=C(N)c1ccc(CNC(=O)CNC(=O)[C@@H](/C=C/c2ccccc2)NS(=O)(=O)Cc2ccccc2)cc1 [Compound 40],1100 nM,170,6.5 nM
N=C(N)c1ccc(CNC(=O)CNC(=O)[C@@H](CCc2ccccc2)NS(=O)(=O)Cc2ccccc2N)cc1 [Compound 19],920 nM,137,6.7 nM
N=C(N)c1ccc(CNC(=O)CNC(=O)C(CCc2ccncc2)NS(=O)(=O)Cc2ccc(N)cc2)cc1 (stereo not shown) [Compound 28],1000 nM,454,2.2 nM
"N=C(N)c1ccc(CNC(=O)[C@H](CO)NC(=O)[C@@H](CCc2ccc(O)cc2)NS(=O)(=O)Cc2ccccc2)cc1 [Compound 6, Bzls-d-homoTyr-Ser-4Amba×TFA]",1400 nM,74,19 nM
N=C(N)c1ccc(CNC(=O)[C@H](CO)NC(=O)[C@@H](CCc2ccccc2)NS(=O)(=O)Cc2ccccc2)cc1 [Compound 15],600 nM,15,40 nM
N=C(N)c1ccc(CNC(=O)CNC(=O)C(CCc2ccncc2)NS(=O)(=O)Cc2ccc(C(=O)O)cc2)cc1 (stereo not shown) [Compound 48],,,10 nM
N=C(N)c1ccc(CNC(=O)CNC(=O)[C@@H](CCc2ccccc2)NS(=O)(=O)Cc2cccc(O)c2)cc1 [Compound 42],1500 nM,288,7.2 nM
N=C(N)c1ccc(CNC(=O)[C@H](CCCC(=O)O)NC(=O)[C@@H](CCc2ccccc2)NS(=O)(=O)Cc2ccccc2)cc1 [Compound 53],800 nM,27,30 nM
